# According to patent US20240368694A1 (priority 2021, published 2024):
# What was measured:
# [1] = tested on: miRNA expression profiles in liver and jejunum; design: species or system Sus scrofa; conditions: in vivo
# miRNAs in serum = tested on: miRNAs in serum; design: species or system Sus scrofa; conditions: in vivo
# [2] = tested on: ssc-miR-16, ssc-miR-128, ssc-miR-205 and ssc-miR-451 in serum; design: species or system Sus scrofa; conditions: in vivo
# [3] = pigs, cited from earlier work
# [4] = tested on: serum interleukins IL1β, IL-8, IL-13, tumor necrosis factor or interferon-gamma; conditions: pigs, 3.3-3.8 ppm DON in feed (Pasternak et al. 2018); cited from earlier work
# [5] = tested on: insulin like growth factor 1 (IGF1); conditions: serum levels of growth hormones (Wang et al. 2019; Wu et al. 2013, 2015); cited from earlier work
smiles,measurement,setting,value
"CC1=C[C@H]2O[C@@H]3[C@H](O)C[C@](C)([C@@]2(CO)[C@H](O)C1=O)[C@]31CO1 [DON, (3α,7α)-3,7,15-trihydroxy-12,13-epoxytrichothec-9-en-8-one]","differentially expressed miRNAs in liver, Control vs DON high",[1],"one differentially expressed miRNA, namely ssc-miR-10b"
same,"differentially expressed miRNAs in tissues, Control vs DON low",[1],no differentially expressed miRNAs
same,effect on the miRNA expression profiles in liver and jejunum,[1],did not exhibit a strong effect
same,number of serum miRNAs significantly altered in both DON low and DON high,miRNAs in serum,eight
same,"number of serum miRNAs significantly altered, DON high vs Control",miRNAs in serum,16
same,"number of serum miRNAs significantly altered, DON low vs Control",miRNAs in serum,15
same,"ssc-let-7a Log2 fold vs Control, DON high",miRNAs in serum,−0.502
same,"ssc-let-7a Log2 fold vs Control, DON low",miRNAs in serum,n.s.
same,"ssc-let-7f-5p Log2 fold vs Control, DON high",miRNAs in serum,−0.503
same,"ssc-let-7f-5p Log2 fold vs Control, DON low",miRNAs in serum,n.s.
same,"ssc-let-7g Log2 fold vs Control, DON high",miRNAs in serum,0.662
same,"ssc-let-7g Log2 fold vs Control, DON low",miRNAs in serum,n.s.
same,"ssc-miR-10a-5p Log2 fold vs Control, DON high",miRNAs in serum,n.s.
same,"ssc-miR-10a-5p Log2 fold vs Control, DON low",miRNAs in serum,−0.806
same,"ssc-miR-10b Log2 fold vs Control, DON high",miRNAs in serum,−0.754
same,"ssc-miR-10b Log2 fold vs Control, DON low",miRNAs in serum,−1.129
same,ssc-miR-10b direction of change in serum upon DON treatment,miRNAs in serum,down-regulated
same,"ssc-miR-16 Log2 fold vs Control, DON high",miRNAs in serum,0.773
same,"ssc-miR-16 Log2 fold vs Control, DON low",miRNAs in serum,1.217
same,ssc-miR-16 direction of change in serum of DON exposed pigs,miRNAs in serum,up-regulated
same,"ssc-miR-17-5p Log2 fold vs Control, DON high",miRNAs in serum,1.194
same,"ssc-miR-17-5p Log2 fold vs Control, DON low",miRNAs in serum,n.s.
same,"ssc-miR-92a Log2 fold vs Control, DON high",miRNAs in serum,0.476
same,"ssc-miR-92a Log2 fold vs Control, DON low",miRNAs in serum,n.s.
same,"ssc-miR-92b-3p Log2 fold vs Control, DON high",miRNAs in serum,n.s.
same,"ssc-miR-92b-3p Log2 fold vs Control, DON low",miRNAs in serum,−1.058
same,"ssc-miR-99b Log2 fold vs Control, DON high",miRNAs in serum,−1.226
same,"ssc-miR-99b Log2 fold vs Control, DON low",miRNAs in serum,−1.393
same,ssc-miR-99b direction of change in serum upon DON treatment,miRNAs in serum,down-regulated
same,"ssc-miR-103 Log2 fold vs Control, DON high",miRNAs in serum,−0.630
same,"ssc-miR-103 Log2 fold vs Control, DON low",miRNAs in serum,n.s.
same,"ssc-miR-107 Log2 fold vs Control, DON high",miRNAs in serum,−0.619
same,"ssc-miR-107 Log2 fold vs Control, DON low",miRNAs in serum,n.s.
same,"ssc-miR-126-5p Log2 fold vs Control, DON high",miRNAs in serum,n.s.
same,"ssc-miR-126-5p Log2 fold vs Control, DON low",miRNAs in serum,−1.298
same,"ssc-miR-128 Log2 fold vs Control, DON high",miRNAs in serum,0.887
same,"ssc-miR-128 Log2 fold vs Control, DON low",miRNAs in serum,1.124
same,ssc-miR-128 direction of change in serum of DON exposed pigs,miRNAs in serum,up-regulated
same,"ssc-miR-148a-3p Log2 fold vs Control, DON high",miRNAs in serum,0.521
same,"ssc-miR-148a-3p Log2 fold vs Control, DON low",miRNAs in serum,n.s.
same,"ssc-miR-192 Log2 fold vs Control, DON high",miRNAs in serum,−0.928
same,"ssc-miR-192 Log2 fold vs Control, DON low",miRNAs in serum,−1.133
same,ssc-miR-192 direction of change in serum upon DON treatment,miRNAs in serum,down-regulated
same,"ssc-miR-205 Log2 fold vs Control, DON high",miRNAs in serum,5.102
same,"ssc-miR-205 Log2 fold vs Control, DON low",miRNAs in serum,5.774
same,ssc-miR-205 direction of change in serum of DON exposed pigs,miRNAs in serum,up-regulated
same,"ssc-miR-339-5p Log2 fold vs Control, DON high",miRNAs in serum,n.s.
same,"ssc-miR-339-5p Log2 fold vs Control, DON low",miRNAs in serum,1.346
same,"ssc-miR-339 Log2 fold vs Control, DON high",miRNAs in serum,n.s.
same,"ssc-miR-339 Log2 fold vs Control, DON low",miRNAs in serum,1.345
same,"ssc-miR-361-3p Log2 fold vs Control, DON high",miRNAs in serum,n.s.
same,"ssc-miR-361-3p Log2 fold vs Control, DON low",miRNAs in serum,2.023
same,"ssc-miR-374a-3p Log2 fold vs Control, DON high",miRNAs in serum,−1.443
same,"ssc-miR-374a-3p Log2 fold vs Control, DON low",miRNAs in serum,−1.271
same,ssc-miR-374a-3p direction of change in serum upon DON treatment,miRNAs in serum,down-regulated
same,"ssc-miR-451 Log2 fold vs Control, DON high",miRNAs in serum,0.808
same,"ssc-miR-451 Log2 fold vs Control, DON low",miRNAs in serum,1.375
same,ssc-miR-451 direction of change in serum of DON exposed pigs,miRNAs in serum,up-regulated
same,"ssc-miR-1388 Log2 fold vs Control, DON high",miRNAs in serum,n.s.
same,"ssc-miR-1388 Log2 fold vs Control, DON low",miRNAs in serum,−1.281
same,ssc-miR-16 normalized Cq-value log 2 fold change in the DON groups compared to the Control,[2],increased
same,"ssc-miR-16 qPCR log2 fold change, DON_high vs Control",[2],2.227
same,"ssc-miR-16 qPCR log2 fold change, DON_low vs Control",[2],3.504
same,ssc-miR-128 normalized Cq-value log 2 fold change in the DON groups compared to the Control,[2],increased
same,"ssc-miR-128 qPCR log2 fold change, DON_high vs Control",[2],1.879
same,"ssc-miR-128 qPCR log2 fold change, DON_low vs Control",[2],3.885
same,ssc-miR-205 normalized Cq-value log 2 fold change in the DON groups compared to the Control,[2],increased
same,"ssc-miR-205 qPCR log2 fold change, DON_high vs Control",[2],2.455
same,"ssc-miR-205 qPCR log2 fold change, DON_low vs Control",[2],4.973
same,ssc-miR-451 normalized Cq-value log 2 fold change in the DON groups compared to the Control,[2],increased
same,"ssc-miR-451 qPCR log2 fold change, DON_high vs Control",[2],1.835
same,"ssc-miR-451 qPCR log2 fold change, DON_low vs Control",[2],2.663
same,doses of DON in feed starting from which feed consumption and weight gain decrease,[3]; EFSA summary of multiple feeding trials,0.6-2.0 ppm
same,effect on body weight at 3 ppm DON,"[3]; exposure to 3 ppm DON (Grenier et al. 2011, 2013)",does not necessarily result in significant effects on body weight
same,"effect on serum interleukins IL1β, IL-8, IL-13, tumor necrosis factor or interferon-gamma",[4],had no effect
same,dietary DON concentrations at which a decrease of serum IGF1 was reported,[5],≥ 3 ppm
